# Assay results from US8193213B2, “Spermicidal and/or antifungal composition and methods of using the same” (priority 2003, dated 2012).
# Marks after values point to notes of the source that are not given here.
# Assays:
# [1] = test system: Candida albicans; test: Antifungal susceptibility testing (NCCLS, MIC/MFC) against C. albicans; assay type: cell-based; parameters: Lowest [Active]: unit not given here; conditions: for CFU for MFC at 300 / Lowest [Active] / CFU for MFC at 200 / CFU for MFC at 100: C. albicans (19 hours); for CFU for MFC at 300: concentration 300; for Lowest [Active]: concentrations 300, 200, 100, unit not given, N/A = no active concentration; for CFU for MFC at 200: concentration 200; for Lowest MIC: lowest concentration that appears to have no growth; for Lowest MFC: lowest concentration that kills >= 98% of the cells in the well; for CFU for MFC at 100: concentration 100
# Procedure: (§1) Antifungal susceptibility testing was performed following the NCCLS guidelines with minor modifications. Briefly, a suspension of Candida albicans cells was prepared from pure cultures grown overnight on yeast-malt extract (YM) agar at 35° C. Several small colonies were removed from a YM agar plate and transferred to 5 ml of 0.85% saline. The cells were suspended by 15 seconds of vortexing and the cell density of the resulting suspension was determined using a spectrophotometer. The cell density was adjusted by addition of 0.85% saline until the transmittance matched that of a 0.5 McFarland standard when measured at a wavelength of 530 nm. An aliquot of this suspension was diluted 1:1000 in RPMI-MOPS to yield a working suspension. A similar suspension of Aspergillus fumigatus spores was obtained by using spores stored at […] in 0.85% saline. These spores were diluted in 0.85% saline to match the McFarland standard transmittance. This suspension was then further diluted 1:50 in RPMI-MOPS to produce the working inoculum suspension.
# (§2) Dilution series of the test compounds were made in RPMI-MOPS containing 2% DMSO. An aliquot of each dilution was added in duplicate to the wells of a sterile 96-well, flat bottom microtiter plate. Then, an aliquot of either the C. albicans cell suspension or the A. fumigatus spore suspension were added to each well for a final volume of 200 μl. The plates were then incubated at […]. […] A similar determination was made for the A. fumigatus plates after 48 hours. […] The numbers of colony forming units (CFU) were counted and these values used to calculate the percent survival of cells or spores in inocula relative to the number of CFUs in the working inoculum suspension. The minimum fungicidal concentration (MFC) was the lowest concentration of test compound with a percent survival of less than 2%.
# [2] = test system: Aspergillus fumigatus; test: Antifungal susceptibility testing (NCCLS, MIC/MFC) against A. fumigatus; assay type: cell-based; parameters: Lowest [Active]: unit not given here; conditions: for CFU for MFC at 100 / CFU for MFC at 200 / CFU for MFC at 300 / Lowest [Active]: A. fumigatus (48 hours); for CFU for MFC at 100: concentration 100; for CFU for MFC at 200: concentration 200; for CFU for MFC at 300: concentration 300; for Lowest [Active]: concentrations 300, 200, 100, unit not given, N/A = no active concentration; for Lowest MIC / Lowest MFC: A. fumigatus; for Lowest MIC: lowest concentration that appears to have no growth; for Lowest MFC: lowest concentration that kills >= 98% of the cells in the well
# Procedure: as §1, §2
# [3] = test system: adult male Swiss mice; test: Antispermatogenic screen: single gavage dose to male mice, testes weight and Spermatogenic Index at 72 h; assay type: in vivo; conditions: day 3 (72 h)
# Procedure: The compounds of the invention were tested in mice for their effects on spermatogenesis three days after a single oral dose by the procedure described in Cook et al (1995) below. Compounds active in this test have been shown also to be anti-fertility compounds.
# Compounds were screened for antispermatogenic activity by dosing male mice on day 1 with a gavage dose of control vehicle, positive control (compound 1) or compound of the invention. At 72 h after dosing, animals were killed and the testes were excised, trimmed of fat, and weighed. One testis was examined histologically and rated for spermatogenic potential using the Spermatogenic Index (J. M. Whitsett, P. F. Noden, J. Cherry and A. D. Lawton, J. Reprod. Fertil., 72, 277 (1984), which is a semiquantitative estimate of the sperm producing ability of the testes The index is based on histological appearance of the spermatogenic cells in the seminiferous tubules. A scale of 1 to 6 is used with 5 to 6 being the normal status. A second assessment was based on the weight of the testes.
# Tables 1 and 2 show pertinent biological results in terms of the change in testes weight (TW) and spermatogenic index (SI) relative to a control containing only the administration vehicle, but no indenopyridine. In Tables 1 and 2, R^3 and R^4 refer to structures Ib, where R^3 is in the para position; R^1 is ethyl; R^2 is methyl; and R^5 is hydrogen.
# [4] = Table 2, 0.3 mg/kg single gavage dose, vehicle 1% Tween20 in water
# [5] = Table 2, 1 mg/kg single gavage dose, vehicle 1% Tween20 in water
# [6] = Table 2, 3 mg/kg single gavage dose, vehicle 1% Tween20 in water
# [7] = Table 2, 10 mg/kg single gavage dose, vehicle 1% Tween20 in water
# [8] = Table 2, 30 mg/kg single gavage dose, vehicle 1% Tween20 in water
# [9] = racemic compounds, 1 mg/kg single gavage dose, vehicle 90% water, 7% Tween20, 3% ethanol
# [10] = racemic compounds, 3 mg/kg single gavage dose, vehicle 90% water, 7% Tween20, 3% ethanol
# [11] = racemic compounds, 10 mg/kg single gavage dose, vehicle 90% water, 7% Tween20, 3% ethanol
compound,measurement,setting,value
CCN1CCC(C(c2ccc(C)cc2)c2cccc(C)c2)CC1.Cl (stereo not shown) [Compound 4587-006],CFU for MFC at 300,[1],"Static (Static = well looked clear, but <98% killed)"
same,Lowest [Active],[1],300
CCN1CCC2C(C1)c1ccc(C)cc1C2c1ccc(OC)cc1.Cl (racemic) [Compound 4587-029],CFU for MFC at 200,[1],"Static (Static = well looked clear, but <98% killed)"
same,CFU for MFC at 300,[1],Cidal (Cidal = >98% killed)
same,Lowest [Active],[1],200
same,CFU for MFC at 100,[2],Cidal (Cidal = >98% killed)
same,CFU for MFC at 200,[2],Cidal (Cidal = >98% killed)
same,CFU for MFC at 300,[2],Cidal (Cidal = >98% killed)
same,Lowest [Active],[2],100
CCN1CCC2=C(c3ccc(OC)cc3)c3cc(C)ccc3C2C1.Cl (stereo not shown) [Compound 4587-082],Lowest MIC,[1]; C. albicans,>100 µg/mL
same,Lowest MIC,[2],100 µg/mL
same,Lowest MFC,[2],100 µg/mL
"CCN1CCC2C(C1)c1cc(I)c(C)cc1C2c1ccc(C(=O)OC)cc1 (single isomer, unassigned) [18 (l)]","SI change (%) (Spermatogenic Index, % change from vehicle control)",[3]; [4],−34%*
same,"TW change (%) (testes weight, % change from vehicle control)",[3]; [4],−11%*
same,"SI change (%) (Spermatogenic Index, % change from vehicle control)",[3]; [5],−66%*
same,"TW change (%) (testes weight, % change from vehicle control)",[3]; [5],−21%*
same,"SI change (%) (Spermatogenic Index, % change from vehicle control)",[3]; [6],−71%*
same,"TW change (%) (testes weight, % change from vehicle control)",[3]; [6],−27%*
same,"SI change (%) (Spermatogenic Index, % change from vehicle control)",[3]; [7],−72%*
same,"TW change (%) (testes weight, % change from vehicle control)",[3]; [7],−31%*
CCN1CCC2C(C1)c1ccc(C)cc1C2c1ccc(C)cc1.Cl (stereo not shown) [Compound 4587-002l],Lowest MIC,[1]; C. albicans,75 µg/mL
same,Lowest MFC,[1]; C. albicans,100 µg/mL
same,Lowest MIC,[2],50 µg/mL
same,Lowest MFC,[2],75 µg/mL
CCN1CCC2=C(c3ccc(C)cc3)c3cc(C)ccc3C2C1.Cl (racemic) [Compound 4587-040],CFU for MFC at 100,[1],Cidal (Cidal = >98% killed)
same,CFU for MFC at 200,[1],Cidal (Cidal = >98% killed)
same,CFU for MFC at 300,[1],Cidal (Cidal = >98% killed)
same,Lowest [Active],[1],100
same,CFU for MFC at 100,[2],Cidal (Cidal = >98% killed)
same,CFU for MFC at 200,[2],Cidal (Cidal = >98% killed)
same,CFU for MFC at 300,[2],Cidal (Cidal = >98% killed)
same,Lowest [Active],[2],100
CCN1CCC2C(C1)c1ccc(C)cc1C2c1ccc(CO)cc1.Cl (racemic) [Compound 4587-055],CFU for MFC at 300,[1],"Static (Static = well looked clear, but <98% killed)"
same,Lowest [Active],[1],300
CCCOC(=O)c1ccc(C2c3cc(C)ccc3C3CN(CC)CCC32)cc1.Cl (racemic) [Compound 4587-062],Lowest MIC,[1]; C. albicans,20 µg/mL
same,Lowest MFC,[1]; C. albicans,20 µg/mL
same,Lowest MIC,[2],10 µg/mL
same,Lowest MFC,[2],10 µg/mL
CCN1CCC2C(C1)c1ccccc1C2c1ccccc1.Cl (racemic) [Compound 4587-037],CFU for MFC at 300,[1],Cidal (Cidal = >98% killed)
same,Lowest [Active],[1],300
same,CFU for MFC at 200,[2],Cidal (Cidal = >98% killed)
same,CFU for MFC at 300,[2],"Static* (Static = well looked clear, but <98% killed)"
same,Lowest [Active],[2],200
CCN1CCC2C(C1)c1ccc(C)cc1C2c1ccc(C)cc1.Cl (stereo not shown) [Compound 4587-003],Lowest MIC,[1]; C. albicans,50 µg/mL
same,Lowest MFC,[1]; C. albicans,75 µg/mL
same,Lowest MIC,[2],25 µg/mL
same,Lowest MFC,[2],25 µg/mL
"CCN1CC[C@@H]2[C@@H](c3ccc(C(=O)OC)cc3)c3cc(C)ccc3[C@@H]2C1.Cl (single isomer, unassigned) [3 (l), (1)-Enantiomer of (4aRS,5SR,9bRS)-2-Ethyl-2,3,4,4a,5,9b-hexahydro-7-methyl-5-(4-carbomethoxyphenyl)-1H-indeno[1,2-c]pyridine Hydrochloride]","SI change (%) (Spermatogenic Index, % change from vehicle control)",[3]; [5],3%
same,"TW change (%) (testes weight, % change from vehicle control)",[3]; [5],8%
same,"SI change (%) (Spermatogenic Index, % change from vehicle control)",[3]; [6],−2%
same,"TW change (%) (testes weight, % change from vehicle control)",[3]; [6],−12%
same,"SI change (%) (Spermatogenic Index, % change from vehicle control)",[3]; [7],−33%*
same,"TW change (%) (testes weight, % change from vehicle control)",[3]; [7],−13%
same,"SI change (%) (Spermatogenic Index, % change from vehicle control)",[3]; [8],−64%*
same,"TW change (%) (testes weight, % change from vehicle control)",[3]; [8],−30%*
CCN1CCC2C(C1)c1cc(I)c(C)cc1C2c1ccc(C(=O)OC)cc1.Cl (stereo not shown) [Compound 4587-073d],CFU for MFC at 100,[1],"Static (Static = well looked clear, but <98% killed)"
same,CFU for MFC at 200,[1],Cidal (Cidal = >98% killed)
same,CFU for MFC at 300,[1],Cidal (Cidal = >98% killed)
same,Lowest [Active],[1],100
same,CFU for MFC at 100,[2],Cidal (Cidal = >98% killed)
same,CFU for MFC at 200,[2],Cidal (Cidal = >98% killed)
same,CFU for MFC at 300,[2],Cidal (Cidal = >98% killed)
same,Lowest [Active],[2],100
"CCN1CC[C@@H]2[C@@H](c3ccc(C(=O)O)cc3)c3cc(C)c(Cl)cc3[C@@H]2C1.Cl (racemic) [Compound 20, (4aRS,5SR,9bRS)-2-Ethyl-8-Chloro-7-Methyl-2,3,4,4a,5,9b-Hexahydro-5-(4-carboxylphenyl)-1H-Indeno[1,2-c]pyridine Hydrochloride]","SI change (%) (Spermatogenic Index, % change from vehicle control)",[3]; [9],−55%*
same,"TW change (%) (testes weight, % change from vehicle control)",[3]; [9],−16%
same,"SI change (%) (Spermatogenic Index, % change from vehicle control)",[3]; [10],−66%*
same,"TW change (%) (testes weight, % change from vehicle control)",[3]; [10],−23%
same,"SI change (%) (Spermatogenic Index, % change from vehicle control)",[3]; [11],−72%*
same,"TW change (%) (testes weight, % change from vehicle control)",[3]; [11],−22%
"C[C@@H]1[C@H](O)[C@@H](C)/C=C/C=C/C=C/C=C/C=C/C=C/C=C/[C@H](O[C@@H]2O[C@H](C)[C@@H](O)[C@H](N)[C@@H]2O)C[C@@H]2O[C@](O)(C[C@@H](O)C[C@@H](O)[C@H](O)CC[C@@H](O)C[C@@H](O)CC(=O)O[C@H]1C)C[C@H](O)[C@H]2C(=O)O [AMP B, reference compound]",Lowest MIC,[1]; C. albicans,0.5 µg/mL
same,Lowest MIC,[2],2 µg/mL
"CC(=O)N1CCN(c2ccc(OCC3COC(Cn4ccnc4)(c4ccc(Cl)cc4Cl)O3)cc2)CC1 (stereo not shown) [Ketaconazole, reference compound]",Lowest MIC,[1]; C. albicans,32 µg/mL
same,Lowest MIC,[2],8 µg/mL
CCN1CCC2C(C1)c1ccc(C)cc1C2c1ccc(C)cc1.Cl (stereo not shown) [Compound 4587-002d],Lowest MFC (class word),[1]; C. albicans,"fungistatic (Fungistatic = compound with an MIC, but <98% of cells killed)"
same,Lowest MIC,[1]; C. albicans,50 µg/mL
same,Lowest MIC,[2],50 µg/mL
same,Lowest MFC,[2],50 µg/mL
"CCN1CC[C@@H]2[C@@H](c3ccc(C(=O)O)cc3)c3cc(C)c(I)cc3[C@@H]2C1.Cl (racemic) [Compound 17, (4aRS,5SR,9bRS)-2-Ethyl-2,3,4,4a,5,9b-hexahydro-8-iodo-7-methyl-5-(4-carboxyphenyl)-1H-indeno[1,2-c]pyridine Hydrochloride]","SI change (%) (Spermatogenic Index, % change from vehicle control)",[3]; [9],−67%*
same,"TW change (%) (testes weight, % change from vehicle control)",[3]; [9],−18%
same,"SI change (%) (Spermatogenic Index, % change from vehicle control)",[3]; [10],−66%*
same,"TW change (%) (testes weight, % change from vehicle control)",[3]; [10],−9%
same,"SI change (%) (Spermatogenic Index, % change from vehicle control)",[3]; [11],−76%*
same,"TW change (%) (testes weight, % change from vehicle control)",[3]; [11],−32%*
CCN1CCC2C(C1)c1ccc(C)cc1C2c1ccc(C#N)cc1.Cl (racemic) [Compound 4587-060],CFU for MFC at 200,[2],Cidal (Cidal = >98% killed)
same,Lowest [Active],[2],200
